# Assay results taken from paper PMC7717600, “Novel [(N-alkyl-3-indolylmethylene)hydrazono]oxindoles arrest cell cycle and induce cell apoptosis by inhibiting CDK2 and Bcl-2: synthesis, biological evaluation and in silico studies” (Journal of Enzyme Inhibition and Medicinal Chemistry, 2020).
# How the values were obtained:
# [1] = system: SNB-19; settings: SNB-19, 10 μM
# [2] = system: SR; settings: 10 μM
# [3] = system: U251; settings: U251, 10 μM
# [4] = system: MDA-MB-435; test: NCI SRB screening; format: cell-based; settings: MDA-MB-435, 10 μM
# [5] = system: OVCAR-5; settings: OVCAR-5, 10 μM
# [6] = system: ACHN; settings: 10 μM
# [7] = system: HCT-15; settings: HCT-15, 10 μM
# [8] = system: M14; test: NCI SRB screening; format: cell-based; settings: M14, 10 μM
# [9] = system: MDA-MB-468; settings: MDA-MB-468, 10 μM
# [10] = system: SK-MEL-2; settings: SK-MEL-2, 10 μM
# [11] = system: TK-10; settings: TK-10, 10 μM
# [12] = system: UACC-62; settings: UACC-62, 10 μM
# [13] = system: BT-549; settings: BT-549, 10 μM
# [14] = system: T-47D; settings: 10 μM
# [15] = system: RPMI-8226; settings: RPMI-8226, 10 μM
# [16] = system: SF-268; settings: SF-268, 10 μM
# [17] = system: MCF7; settings: MCF7, 10 μM
# [18] = system: UACC-257; settings: UACC-257, 10 μM
# [19] = system: NCI-H322M; test: NCI SRB screening; settings: 10 μM
# [20] = system: MDA-MB-231/ATCC; settings: MDA-MB-231, 10 μM
# [21] = system: A549/ATCC; settings: 10 μM
# [22] = system: MALME-3M; settings: 10 μM
# [23] = system: A498; settings: A498, 10 μM
# [24] = system: UO-31; settings: UO-31, 10 μM
# [25] = system: SF-295; settings: SF-295, 10 μM
# [26] = system: HCC-2998; test: NCI SRB screening; format: cell-based, human; settings: HCC-2998, 10 μM
# [27] = system: DU-145; settings: DU-145, 10 μM
# [28] = system: HL-60(TB); settings: HL-60(TB), 10 μM
# [29] = system: HOP-92; settings: HOP-92, 10 μM
# [30] = system: A-549; test: SRB anti-proliferative assay; format: cell-based; settings: Homo sapiens, A549; A-549, SRB, mean ± SE of 3
# [31] = system: SF-539; settings: SF-539, 10 μM
# [32] = system: PC-3; test: NCI SRB screening; format: cell-based, human; settings: PC-3, 10 μM
# [33] = system: NCI-H522; settings: NCI-H522, 10 μM
# [34] = system: KM12; settings: KM12, 10 μM
# [35] = system: HS 578T; settings: 10 μM
# [36] = system: SNB-75; settings: SNB-75, 10 μM
# [37] = system: OVCAR-8; settings: OVCAR-8, 10 μM
# [38] = system: CCRF-CEM; settings: 10 μM
# [39] = system: SK-MEL-5; settings: SK-MEL-5, 10 μM
# [40] = system: RXF 393; settings: RXF 393, 10 μM
# [41] = system: LOX IMVI; test: NCI SRB screening; format: cell-based, human; settings: 10 μM
# [42] = system: NCI-H226; settings: NCI-H226, 10 μM
# [43] = system: OVCAR-3; settings: OVCAR-3, 10 μM
# [44] = system: SK-OV-3; settings: SK-OV-3, 10 μM
# [45] = system: IGROV1; settings: IGROV1, 10 μM
compound,measurement,setting,value
C=CCn1cc(C=NN=C2C(=O)Nc3ccccc32)c2ccccc21 [Compound 10a],GI %,[1],– (Only GI % higher than 10% are shown)
same,GI %,[2],50%
same,GI %,[3],10%
same,GI %,[4],– (Only GI % higher than 10% are shown)
same,GI %,[5],– (Only GI % higher than 10% are shown)
same,GI %,[6],– (Only GI % higher than 10% are shown)
same,GI %,[7],15%
same,GI %,[8],12%
same,GI %,[9],20%
same,GI %,[10],– (Only GI % higher than 10% are shown)
same,GI %,[11],– (Only GI % higher than 10% are shown)
same,GI %,[12],25%
same,GI %,[13],– (Only GI % higher than 10% are shown)
same,GI %,[14],56%
same,GI %,[15],13%
same,GI %,[16],– (Only GI % higher than 10% are shown)
same,GI %,[17],33%
same,GI %,[18],– (Only GI % higher than 10% are shown)
same,GI %,[19],– (Only GI % higher than 10% are shown)
same,GI %,[20],– (Only GI % higher than 10% are shown)
same,GI %,[21],– (Only GI % higher than 10% are shown)
same,GI %,[22],26%
same,GI %,[23],– (Only GI % higher than 10% are shown)
same,GI %,[24],33%
same,GI %,[25],– (Only GI % higher than 10% are shown)
same,GI %,[26],– (Only GI % higher than 10% are shown)
same,GI %,[27],– (Only GI % higher than 10% are shown)
same,GI %,[28],22%
same,GI %,[29],– (Only GI % higher than 10% are shown)
same,IC50,[30],17.3 ± 1.19 µM
same,GI %,[31],– (Only GI % higher than 10% are shown)
same,GI %,[32],22%
same,GI %,[33],31%
same,GI %,[34],– (Only GI % higher than 10% are shown)
same,GI %,[35],– (Only GI % higher than 10% are shown)
same,GI %,[36],18%
same,GI %,[37],15%
same,GI %,[38],– (Only GI % higher than 10% are shown)
same,GI %,[39],– (Only GI % higher than 10% are shown)
same,GI %,[40],11%
same,GI %,[41],– (Only GI % higher than 10% are shown)
same,GI %,[42],13%
same,GI %,[43],21%
same,GI %,[44],– (Only GI % higher than 10% are shown)
same,GI %,[45],28%
C=CCn1cc(C=NN=C2C(=O)Nc3c(F)cccc32)c2ccccc21 [Compound 10c],GI %,[1],– (Only GI % higher than 10% are shown)
same,GI %,[2],58%
same,GI %,[3],– (Only GI % higher than 10% are shown)
same,GI %,[4],– (Only GI % higher than 10% are shown)
same,GI %,[5],– (Only GI % higher than 10% are shown)
same,GI %,[6],11%
same,GI %,[7],22%
same,GI %,[8],– (Only GI % higher than 10% are shown)
same,GI %,[9],54%
same,GI %,[10],– (Only GI % higher than 10% are shown)
same,GI %,[11],– (Only GI % higher than 10% are shown)
same,GI %,[12],15%
same,GI %,[13],– (Only GI % higher than 10% are shown)
same,GI %,[14],50%
same,GI %,[15],– (Only GI % higher than 10% are shown)
same,GI %,[16],– (Only GI % higher than 10% are shown)
same,GI %,[17],31%
same,GI %,[18],– (Only GI % higher than 10% are shown)
same,GI %,[19],– (Only GI % higher than 10% are shown)
same,GI %,[20],– (Only GI % higher than 10% are shown)
same,GI %,[21],– (Only GI % higher than 10% are shown)
same,GI %,[22],– (Only GI % higher than 10% are shown)
same,GI %,[23],– (Only GI % higher than 10% are shown)
same,GI %,[24],29%
same,GI %,[25],– (Only GI % higher than 10% are shown)
same,GI %,[26],– (Only GI % higher than 10% are shown)
same,GI %,[27],– (Only GI % higher than 10% are shown)
same,GI %,[28],– (Only GI % higher than 10% are shown)
same,GI %,[29],– (Only GI % higher than 10% are shown)
same,IC50,[30],43.8 ± 2.96 µM
same,GI %,[31],– (Only GI % higher than 10% are shown)
same,GI %,[32],10%
same,GI %,[33],34%
same,GI %,[34],– (Only GI % higher than 10% are shown)
same,GI %,[35],– (Only GI % higher than 10% are shown)
same,GI %,[36],– (Only GI % higher than 10% are shown)
same,GI %,[37],11%
same,GI %,[38],17%
same,GI %,[39],– (Only GI % higher than 10% are shown)
same,GI %,[40],– (Only GI % higher than 10% are shown)
same,GI %,[41],– (Only GI % higher than 10% are shown)
same,GI %,[42],56%
same,GI %,[43],13%
same,GI %,[44],– (Only GI % higher than 10% are shown)
same,GI %,[45],31%
C=CCn1cc(C=NN=C2C(=O)Nc3ccc(Cl)cc32)c2ccccc21 [Compound 10d],GI %,[1],– (Only GI % higher than 10% are shown)
same,GI %,[2],33%
same,GI %,[3],– (Only GI % higher than 10% are shown)
same,GI %,[4],– (Only GI % higher than 10% are shown)
same,GI %,[5],– (Only GI % higher than 10% are shown)
same,GI %,[6],– (Only GI % higher than 10% are shown)
same,GI %,[7],10%
same,GI %,[8],– (Only GI % higher than 10% are shown)
same,GI %,[9],36%
same,GI %,[10],– (Only GI % higher than 10% are shown)
same,GI %,[11],– (Only GI % higher than 10% are shown)
same,GI %,[12],19%
same,GI %,[13],– (Only GI % higher than 10% are shown)
same,GI %,[14],30%
same,GI %,[15],– (Only GI % higher than 10% are shown)
same,GI %,[16],– (Only GI % higher than 10% are shown)
same,GI %,[17],18%
same,GI %,[18],– (Only GI % higher than 10% are shown)
same,GI %,[19],– (Only GI % higher than 10% are shown)
same,GI %,[20],– (Only GI % higher than 10% are shown)
same,GI %,[21],– (Only GI % higher than 10% are shown)
same,GI %,[22],– (Only GI % higher than 10% are shown)
same,GI %,[23],– (Only GI % higher than 10% are shown)
same,GI %,[24],23%
same,GI %,[25],– (Only GI % higher than 10% are shown)
same,GI %,[26],– (Only GI % higher than 10% are shown)
same,GI %,[27],– (Only GI % higher than 10% are shown)
same,GI %,[28],– (Only GI % higher than 10% are shown)
same,GI %,[29],– (Only GI % higher than 10% are shown)
same,IC50,[30],53.1 ± 4.13 µM
same,GI %,[31],– (Only GI % higher than 10% are shown)
same,GI %,[32],– (Only GI % higher than 10% are shown)
same,GI %,[33],17%
same,GI %,[34],– (Only GI % higher than 10% are shown)
same,GI %,[35],– (Only GI % higher than 10% are shown)
same,GI %,[36],– (Only GI % higher than 10% are shown)
same,GI %,[37],– (Only GI % higher than 10% are shown)
same,GI %,[38],– (Only GI % higher than 10% are shown)
same,GI %,[39],– (Only GI % higher than 10% are shown)
same,GI %,[40],– (Only GI % higher than 10% are shown)
same,GI %,[41],– (Only GI % higher than 10% are shown)
same,GI %,[42],41%
same,GI %,[43],– (Only GI % higher than 10% are shown)
same,GI %,[44],– (Only GI % higher than 10% are shown)
same,GI %,[45],23%
